From patent US20240100023A1, “Compositions and Methods For Treating Spinal Cord Injuries” (priority 2020, published 2024)
Entries after “also recorded” stand apart in the source; their conditions may differ.

Key:
Rat (Lister) = experiment: 5 Choice serial reaction time task; assay type: in vivo; conditions: IP
Text: Another useful animal model for evaluating ampakine activity is the Five Choice Serial Reaction Time Task in Rats. This assay requires rats to provide a single nose poke in response to a light stimulus presented in one of five locations within a 9-hole chamber. With a correct response a reward is delivered that the rat collects from the food magazine at the rear of the chamber. The withdrawal of its head from the food magazine initiates a short inter-trial interval followed by the presentation of the next randomly presented stimulus. An incorrect response results in a time out period (non-reinforcement) followed by the initiation of a new trial. Groups of 12 rats were used in this study, and all rats received all treatments using a randomized sequence. For evaluation using this model, CX1739 was selected as the exemplary low impact ampakine, administered at doses of 3 and 10 mg/kg i.p. 20 min prior to the start of the study.

[1] = test system: adult patients with Attention-Deficit Hyperactive Disorder (ADHD); experiment: Phase 2 randomized, double-blind, 2-period crossover study in adult ADHD; assay type: in vivo, human; conditions: for ADHD-RS hyperactivity subscale mean score: ITT
Protocol: *This phase 2 study evaluated the efficacy, tolerability and safety of CX717 in the treatment of adult patients with Attention-Deficit Hyperactive Disorder (ADHD). The study was designed and executed as a randomized, double-blind, multi-center, 2-period crossover study comparing 2 doses of CX717 (200 mg, or 800 mg, BID) with placebo. Each treatment period lasted 3 weeks with a 2-week washout in between. Subjects met DSM-IV criteria for adult ADHD and had moderate to severe symptoms. The primary efficacy measure was the change from baseline on the ADHD Rating Scale (ADHD-RS) with adult ADHD prompts. A total of 68 male subjects, who were 19 to 50 years old and met criteria of Adult ADHD as defined by DSM IV, were randomized After accounting for early study dropouts, 51 subjects (75%) returned for efficacy assessments and completed both treatment periods (intent-to-treat population). […] Treatment with CX717 was well tolerated with no clinically significant changes in cardiovascular and other safety parameters with either dose. Sleep disturbances and headache were the most frequently reported adverse events.
The present study further examined the clinical efficacy, tolerability and safety of CX717 as a drug treatment for adults with ADHD. Eligible subjects were randomized to 1 of 4 possible treatment sequences in which they received placebo (P) and either high dose (H) or low dose (L) of active treatment in random order (PL, PH, LP, and HP). Each treatment period was 3 weeks in duration with a 2-week washout in between. The study design was modeled after several similarly published ADHD studies with atomoxetine and stimulants, with sample sizes in the mid-20s. Since this is the first such study with CX7171 in ADHD, it is assumed that efficacy would be achieved using historical assumptions in effect size, therefore, a total of 60 subjects were to be randomized.
All patients met DSM-IV criteria for adult ADHD, established by the Adult ADHD Clinical Diagnostic Scale (ACDS) Version 1.2. All patients gave written informed consent prior to enrollment and the conduct of the study was approved by either the […] Review Board (IRB) at each site or by the central IRB. Each subject had at least moderately severe ADHD symptoms (ADHD-RS score of ≥22; Clinician's Global Impression of Severity [CGI-S] score of ≥4). Each subject was male, and between 18-50 years old, inclusively. Male patients were selected because the necessary reproductive toxicology studies that would have allowed women of childbearing potential to be included in the study had not been completed.
Subjects were excluded if they were taking medication specifically for treatment of ADHD symptoms (e.g., stimulants, atomoxetine, tricyclic antidepressants, or bupropion). ADHD treatments were discontinued (stimulants for 2 weeks and non-stimulant for 4 weeks) prior to the Period 1 baseline visit. Subjects were also excluded if they were taking antidepressants, anticonvulsants, or antipsychotics.
CX717 capsules were administered orally as 200 mg BID or 800 mg BID doses. Matching placebo capsules were identical in appearance to the capsules containing active drug, and were administered orally. The study was divided into a series of periods: screening period—up to 4 weeks, treatment period 1-3 weeks; wash-out period—2 weeks; treatment period 2-3 weeks; follow-up period—approximately 1 week.
ADHD recovery drug efficacy was assessed using the Adult ADHD Rating Scale (DuPaul, 1998) with prompts ([…]) (Adler & Cohen, 2004). The primary efficacy outcome measure was the comparison of each dose of CX717 versus placebo on the change from baseline in ADHD symptoms as measured by the ADHD-RS at Week 3. Secondary efficacy parameters included comparisons of each dose of CX717 versus placebo for the ADHD-RS Inattentiveness Subscale Score of the ADHD-RS.
Safety was evaluated by adverse events (AEs), clinical laboratory tests, vital signs, physical examination, and electrocardiograms (ECGs). […]

[2] = high dose (800 mg BID), after 3 weeks

SMILES | Minimum Effective Dose, 5 choice serial reaction time task (Rat (Lister)) | ADHD-RS outcome measures, low dose versus placebo ([1]; 200 mg BID) | ADHD-RS total and subscales, high dose versus placebo, repeated measures analysis ([1]; 800 mg BID, at endpoint) | ADHD-RS hyperactivity subscale mean score ([1]; active dose (both doses), last value) | Difference from placebo in mean change of ADHD-RS total score [1, 2] | Mean change from baseline of ADHD-RS total score [1, 2] | ADHD-RS hyperactivity subscale mean score ([1]; high dose, Week 1) | ADHD-RS hyperactivity subscale mean score ([1]; high dose, Week 3) | ADHD-RS hyperactivity subscale mean score ([1]; high dose, last value)
CN(C(=O)c1ccc2nonc2c1)C1CCOCC1 [CX1739, N-Methyl-N-tetrahydro-2H-pyran-4-yl-[2,1,3]-benzoxadiazole-5-carboxamide] | 3 mg/kg | – | – | – | – | – | – | – | –
O=C(c1ccc2nonc2c1)N1CCOCC1 [CX717, 1-(benzofurazan-5-ylcarbonyl)morpholine] | – | no statistically significant differences; also recorded: did not differ from placebo | superior efficacy compared to placebo | −4.10 | −4.73 | −9.95 | −4.22 | −5.68 | −5.57
